Measured values: patent publication US20240270809A1, “ORAL GLP RECEPTOR AGONISTS” (priority 2020, published 2024)
Where two headings read alike, the source gives them in different places. Positions of bridges follow the written chain, without caps; N, C: chain ends. Non-standard residues stand in square brackets, D forms with d. Residues, ends and D or L forms follow the SMILES beside them. *: point of attachment. Malonyl(2,2-Me2,histaminyl) = CC(C)(C(=O)NCCc1cnc[nH]1)C(=O)*; Ala(1H-tetrazol-5-yl) = N[C@@H](Cc1nnn[nH]1)C(=O)O; αMeL = CC(C)C[C@](C)(N)C(=O)O; Nle = CCCC[C@H](N)C(=O)O; Aib = CC(C)(N)C(=O)O

Key:
Type in all cases: cell-based
mouse GLP2 receptor = biological target: T1, mouse GLP2 receptor (Mus musculus, UniProt Q5IXF8); assay: cAMP accumulation assay, functional agonism of mouse GLP2 receptor
T1 construct: expressed in transfected cells; host or cells: HEK cells, transient transfection with GeneJuice
T1 sequence (Q5IXF8 1-512): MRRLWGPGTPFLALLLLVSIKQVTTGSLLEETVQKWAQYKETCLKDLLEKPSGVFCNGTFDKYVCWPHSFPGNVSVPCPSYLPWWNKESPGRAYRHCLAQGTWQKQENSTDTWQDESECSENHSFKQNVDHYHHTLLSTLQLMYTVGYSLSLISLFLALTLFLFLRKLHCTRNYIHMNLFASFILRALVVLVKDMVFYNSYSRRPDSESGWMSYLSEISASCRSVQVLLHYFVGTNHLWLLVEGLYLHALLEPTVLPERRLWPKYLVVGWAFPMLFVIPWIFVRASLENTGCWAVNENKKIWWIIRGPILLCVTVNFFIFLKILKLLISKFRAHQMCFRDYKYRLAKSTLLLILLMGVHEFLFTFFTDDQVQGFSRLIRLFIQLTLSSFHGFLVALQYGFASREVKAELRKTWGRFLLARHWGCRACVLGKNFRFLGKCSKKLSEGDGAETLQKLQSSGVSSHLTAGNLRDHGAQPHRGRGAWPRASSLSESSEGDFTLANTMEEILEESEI
Outline: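 pEC50 values come from four-parameter fits of HTRF cAMP signal, read after lysis and 1 h RT incubation. Compounds were incubated 45 min at 37 °C with previously frozen, transiently transfected HEK cells (8000/well) in HBSS containing 0.5 mM IBMX.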

mouse GLP1 receptor = biological target: T2, mouse GLP1 receptor (Mus musculus, UniProt O35659); assay: cAMP accumulation assay, functional agonism of mouse GLP1 receptor
T2 construct: expressed in transfected cells; host or cells: HEK cells, transient transfection with GeneJuice
T2 sequence (O35659 22-463): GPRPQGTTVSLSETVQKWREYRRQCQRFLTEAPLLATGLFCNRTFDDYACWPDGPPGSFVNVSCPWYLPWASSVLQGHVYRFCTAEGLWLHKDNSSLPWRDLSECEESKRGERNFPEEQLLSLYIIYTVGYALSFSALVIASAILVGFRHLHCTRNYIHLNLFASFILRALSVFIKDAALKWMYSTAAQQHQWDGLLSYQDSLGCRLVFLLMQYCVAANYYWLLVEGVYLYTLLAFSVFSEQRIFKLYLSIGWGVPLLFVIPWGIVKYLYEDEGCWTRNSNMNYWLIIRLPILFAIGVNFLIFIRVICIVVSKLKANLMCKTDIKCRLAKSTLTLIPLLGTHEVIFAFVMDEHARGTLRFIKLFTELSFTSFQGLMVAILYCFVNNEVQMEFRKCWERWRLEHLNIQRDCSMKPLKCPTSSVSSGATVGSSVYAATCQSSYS

human GLP1 receptor = biological target: T3, human GLP1 receptor (Homo sapiens, UniProt P43220); assay: cAMP accumulation assay, functional agonism of human GLP1 receptor; details: HEK cells infected with human GLP1 receptor BacMam virus, HTRF cAMP; for Emax: HEK293, read-out: Human GLP-1R agonist cAMP Emax; for EC50: read-out: Human GLP-1R agonist cAMP pEC50 (converted)
T3 construct: expressed in transfected cells; host or cells: HEK cells, BacMam virus transduction
T3 sequence (P43220 24-463): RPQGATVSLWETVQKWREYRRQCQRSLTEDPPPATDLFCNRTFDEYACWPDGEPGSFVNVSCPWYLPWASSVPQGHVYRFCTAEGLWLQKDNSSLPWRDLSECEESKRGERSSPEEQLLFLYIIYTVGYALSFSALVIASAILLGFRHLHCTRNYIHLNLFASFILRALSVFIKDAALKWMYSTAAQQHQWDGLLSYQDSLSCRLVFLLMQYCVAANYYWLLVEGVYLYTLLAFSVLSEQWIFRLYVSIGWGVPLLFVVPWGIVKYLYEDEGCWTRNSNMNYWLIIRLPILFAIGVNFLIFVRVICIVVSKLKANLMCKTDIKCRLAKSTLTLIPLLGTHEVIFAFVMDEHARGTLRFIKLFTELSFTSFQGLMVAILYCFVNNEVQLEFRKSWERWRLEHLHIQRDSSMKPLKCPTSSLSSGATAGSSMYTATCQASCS
Outline: (§1)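 cAMP read by HTRF detection reagents in lysis buffer following 45 min agonist exposure at 37 °C. Cells: frozen HEK transduced for 24 h with GLP1 or GLP2 receptor BacMam, suspended in HBSS plus 0.5 mM IBMX.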

human GLP2 receptor = biological target: T4, human GLP2 receptor (Homo sapiens, UniProt O95838); assay: cAMP accumulation assay, functional agonism of human GLP2 receptor; details: HEK cells infected with human GLP2 receptor BacMam virus, HTRF cAMP; for Emax: HEK293, read-out: Human GLP-2R agonist cAMP Emax; for EC50: read-out: Human GLP-2R agonist cAMP pEC50 (converted)
T4 construct: expressed in transfected cells; host or cells: HEK cells, BacMam virus transduction
T4 sequence (O95838 1-553): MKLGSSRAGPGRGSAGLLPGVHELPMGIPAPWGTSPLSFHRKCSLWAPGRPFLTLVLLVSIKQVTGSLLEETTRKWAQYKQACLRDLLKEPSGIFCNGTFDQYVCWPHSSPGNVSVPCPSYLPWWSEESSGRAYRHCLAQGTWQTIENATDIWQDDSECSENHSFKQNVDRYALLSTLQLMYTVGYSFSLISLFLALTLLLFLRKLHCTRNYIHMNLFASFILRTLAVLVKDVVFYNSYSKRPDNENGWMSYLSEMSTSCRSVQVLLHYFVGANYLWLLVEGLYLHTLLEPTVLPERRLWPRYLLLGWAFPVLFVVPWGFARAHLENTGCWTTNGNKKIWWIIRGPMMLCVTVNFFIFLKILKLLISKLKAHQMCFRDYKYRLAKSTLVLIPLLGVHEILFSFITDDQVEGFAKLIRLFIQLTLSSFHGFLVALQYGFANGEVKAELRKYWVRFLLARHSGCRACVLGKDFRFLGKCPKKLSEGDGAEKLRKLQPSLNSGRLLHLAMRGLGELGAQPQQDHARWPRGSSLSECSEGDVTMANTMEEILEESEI
Outline: as §1

[1] = HEK293, HEK cells transiently transfected with mouse GLP2 receptor, HTRF cAMP, read-out: Mouse GLP-2R agonist cAMP Emax
[2] = HEK cells transiently transfected with mouse GLP2 receptor, HTRF cAMP, read-out: Mouse GLP-2R agonist cAMP pEC50 (converted)
[3] = HEK293, HEK cells transiently transfected with mouse GLP1 receptor, HTRF cAMP, read-out: Mouse GLP-1R agonist cAMP Emax
[4] = HEK cells transiently transfected with mouse GLP1 receptor, HTRF cAMP, read-out: Mouse GLP-1R agonist cAMP pEC50 (converted)

Row | Emax (mouse GLP2 receptor; [1]) [%] | EC50 (mouse GLP2 receptor; [2]) [nM] | Emax (mouse GLP1 receptor; [3]) [%] | EC50 (mouse GLP1 receptor; [4]) [nM] | Emax (human GLP1 receptor) [%] | EC50 (human GLP1 receptor) [nM] | Emax (human GLP2 receptor) [%] | EC50 (human GLP2 receptor) [nM] | Structure (SMILES) | EC50 (mouse GLP2 receptor) [nM] | Emax (mouse GLP2 receptor; HEK293, read-out: Mouse GLP-2R agonist cAMP Emax) [%] | EC50 (mouse GLP1 receptor) [nM] | Emax (mouse GLP1 receptor; HEK293, read-out: Mouse GLP-1R agonist cAMP Emax) [%]
1 | 98.9 | 0.0126 | 94.8 | 10 | 96.5 | 10 | 99.3 | 0.002 | CCCC[C@H](NC(=O)[C@H](CCC(=O)O)NC(=O)[C@H](CC(=O)O)NC(=O)[C@H](CO)NC(=O)[C@H](Cc1ccccc1)NC(=O)[C@H](CO)NC(=O)CNC(=O)[C@H](CC(=O)O)NC(=O)C(C)(C)NC(=O)[C@@H](N)Cc1c[nH]cn1)C(=O)N[C@H](Cc1ccccc1)C(=O)N[C@H](C(=O)N[C@H](C(=O)N[C@@H](CC(C)C)C(=O)N[C@@H](CC(=O)O)C(=O)N[C@H]1CC(=O)NCCCC[C@@H](C(=O)N[C@@H](CC(=O)O)C(=O)N[C@@H](Cc2ccccc2)C(=O)N[C@H](C(=O)N[C@@H](CC(N)=O)C(=O)N[C@@H](Cc2c[nH]c3ccccc23)C(=O)N[C@@H](CC(C)C)C(=O)N[C@H](C(=O)N[C@@H](CCC(N)=O)C(=O)N[C@H](C(=O)N[C@@H](CCCCN)C(=O)N[C@H](C(=O)N[C@H](C(=O)N[C@@H](CC(=O)O)C(N)=O)[C@@H](C)O)[C@@H](C)CC)[C@@H](C)O)[C@@H](C)CC)[C@@H](C)CC)NC(=O)[C@H](C)NC(=O)[C@H](C)NC(=O)[C@H](CCCCN)NC1=O)[C@@H](C)CC)[C@@H](C)O [Example 92] (H-H[Aib]DGSFSDE[Nle][dF]TILDDKAAKDFINWLIQTKITD-NH2; lactam 16-20; N-terminus and C-terminus assumed) | – | – | – | –
2 | 102 | 0.00794 | 94.7 | 5.01 | 97 | 3.98 | 102 | 0.00794 | CCCC[C@H](NC(=O)[C@H](CCC(=O)O)NC(=O)[C@H](CC(=O)O)NC(=O)[C@H](CO)NC(=O)[C@H](Cc1ccccc1)NC(=O)[C@H](CO)NC(=O)CNC(=O)[C@H](Cc1nn[nH]n1)NC(=O)C(C)(C)C(=O)NCCc1c[nH]cn1)C(=O)N[C@H](Cc1ccccc1)C(=O)N[C@H](C(=O)N[C@H](C(=O)N[C@@H](CC(C)C)C(=O)N[C@@H](CC(=O)O)C(=O)N[C@H]1CC(=O)NCCCC[C@@H](C(=O)N[C@@H](CC(=O)O)C(=O)N[C@@H](Cc2ccccc2)C(=O)N[C@H](C(=O)N[C@@H](CC(N)=O)C(=O)N[C@@H](Cc2c[nH]c3ccccc23)C(=O)N[C@@H](CC(C)C)C(=O)N[C@H](C(=O)N[C@@H](CCC(N)=O)C(=O)N[C@H](C(=O)N[C@@H](CCCCN)C(=O)N[C@H](C(=O)N[C@H](C(=O)N[C@@H](Cc2ccccc2)C(N)=O)[C@@H](C)O)[C@@H](C)CC)[C@@H](C)O)[C@@H](C)CC)[C@@H](C)CC)NC(=O)[C@H](C)NC(=O)[C@H](C)NC(=O)[C@H](CCCCN)NC1=O)[C@@H](C)CC)[C@@H](C)O [Example 95] ({Malonyl(2,2-Me2,histaminyl)}-[Ala(1H-tetrazol-5-yl)]GSFSDE[Nle][dF]TILDDKAAKDFINWLIQTKITF-NH2; lactam 14-18; C-terminus assumed) | – | – | – | –
3 | 99.9 | 0.316 | 95.5 | 0.2 | 94.4 | 0.316 | 103 | 0.00794 | CCCC[C@H](NC(=O)[C@H](CCC(=O)O)NC(=O)[C@H](CC(=O)O)NC(=O)[C@H](CO)NC(=O)[C@H](Cc1ccccc1)NC(=O)[C@H](CO)NC(=O)[C@@H](C)NC(=O)[C@H](Cc1nn[nH]n1)NC(=O)C(C)(C)C(=O)NCCc1c[nH]cn1)C(=O)N[C@H](Cc1ccccc1)C(=O)N[C@H](C(=O)N[C@@](C)(CC(C)C)C(=O)N[C@@H](CC(C)C)C(=O)N[C@@H](CC(=O)O)C(=O)N[C@H]1CCC(=O)NCCCC[C@@H](C(=O)N[C@@H](CC(=O)O)C(=O)N[C@@H](Cc2ccccc2)C(=O)N[C@H](C(=O)N[C@H]2CCC(=O)NCCCC[C@@H](C(=O)N[C@H](C(=O)N[C@@H](CCCCN)C(=O)N[C@H](C(=O)N[C@H](C(=O)N[C@@H](Cc3ccccc3)C(N)=O)[C@@H](C)O)[C@@H](C)CC)[C@@H](C)O)NC(=O)[C@H]([C@@H](C)CC)NC(=O)[C@H](CC(C)C)NC(=O)[C@H](Cc3c[nH]c4ccccc34)NC2=O)[C@@H](C)CC)NC(=O)[C@H](C)NC(=O)[C@H](C)NC(=O)[C@H](CCCCN)NC1=O)[C@@H](C)O [Example 116] ({Malonyl(2,2-Me2,histaminyl)}-[Ala(1H-tetrazol-5-yl)][dA]SFSDE[Nle][dF]T[αMeL]LDEKAAKDFIEWLIKTKITF-NH2; lactam 14-18, 22-26 (inferred); C-terminus assumed) | – | – | – | –

Row | Structure (SMILES) | Emax (mouse GLP2 receptor; [1]) [%] | EC50 (mouse GLP2 receptor; [2]) [nM] | Emax (mouse GLP1 receptor; [3]) [%] | EC50 (mouse GLP1 receptor; [4]) [nM] | Emax (human GLP1 receptor) [%] | EC50 (human GLP1 receptor) [nM] | Emax (human GLP2 receptor) [%] | EC50 (human GLP2 receptor) [nM] | EC50 (mouse GLP2 receptor) [nM] | Emax (mouse GLP2 receptor; HEK293, read-out: Mouse GLP-2R agonist cAMP Emax) [%] | EC50 (mouse GLP1 receptor) [nM] | Emax (mouse GLP1 receptor; HEK293, read-out: Mouse GLP-1R agonist cAMP Emax) [%]
4 | CCCC[C@H](NC(=O)[C@H](CCC(=O)O)NC(=O)[C@H](CC(=O)O)NC(=O)[C@H](CO)NC(=O)[C@H](Cc1ccccc1)NC(=O)[C@H](CO)NC(=O)CNC(=O)[C@H](Cc1nn[nH]n1)NC(=O)C(C)(C)C(=O)NCCc1c[nH]cn1)C(=O)N[C@H](Cc1ccccc1)C(=O)N[C@H](C(=O)N[C@H](C(=O)N[C@@H](CC(C)C)C(=O)N[C@@H](CC(=O)O)C(=O)N[C@H]1CCC(=O)NCCCC[C@@H](C(=O)N[C@@H](CC(=O)O)C(=O)N[C@@H](Cc2ccccc2)C(=O)N[C@H](C(=O)N[C@@H](CC(N)=O)C(=O)N[C@@H](Cc2c[nH]c3ccccc23)C(=O)N[C@@H](CC(C)C)C(=O)N[C@H](C(=O)N[C@@H](CCC(N)=O)C(=O)N[C@H](C(=O)N[C@@H](CCCCN)C(=O)N[C@H](C(=O)N[C@H](C(=O)N[C@@H](Cc2ccccc2)C(N)=O)[C@@H](C)O)[C@@H](C)CC)[C@@H](C)O)[C@@H](C)CC)[C@@H](C)CC)NC(=O)[C@H](C)NC(=O)[C@H](C)NC(=O)[C@H](CCCCN)NC1=O)[C@@H](C)CC)[C@@H](C)O [Example 96] ({Malonyl(2,2-Me2,histaminyl)}-[Ala(1H-tetrazol-5-yl)]GSFSDE[Nle][dF]TILDEKAAKDFINWLIQTKITF-NH2; lactam 14-18) | – | – | – | – | 96.4 | 0.501 | 101 | 0.00631 | 0.794 | 101 | 0.794 | 96.1
